Assay results from PubChem BioAssay (NCI).
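Five concentrations, 48 hours, 96-well plates. Here, GI50 denotes the concentration required for 50% inhibition of growth. The concentration for full growth arrest is given as TGI.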

What was measured:
Experiment in all cases: inhibition of tumour cell growth, NCI panel, 48 h
[1] = test system: SF-268 CNS
[2] = test system: SK-MEL-5 melanoma
[3] = test system: SK-OV-3 ovarian
[4] = test system: NCI-H23 lung
[5] = test system: NCI-H522 lung
[6] = test system: UACC-62 melanoma
[7] = test system: HCT-116 colon
[8] = test system: SNB-78 CNS
[9] = test system: CCRF-CEM leukemia
[10] = test system: LOX IMVI melanoma

| SMILES | TGI [1] [µM] | TGI [2] [µM] | TGI [3] [µM] | TGI [4] [µM] | TGI [5] [µM] | TGI [6] [µM] | TGI [7] [µM] | TGI [8] [µM] | TGI [9] [µM] | TGI [10] [µM] | GI50 [1] [µM] | GI50 [2] [µM] | GI50 [3] [µM] | GI50 [4] [µM] | GI50 [6] [µM] | GI50 [8] [µM] | GI50 [9] [µM] | GI50 [10] [µM] |
| --- | --- | --- | --- | --- | --- | --- | --- | --- | --- | --- | --- | --- | --- | --- | --- | --- | --- | --- |
| O=C(N/C(=C\c1cc(Cl)ccc1Cl)c1nc2[nH]c(=S)[nH]c(=O)c2[nH]1)c1ccccc1 | > 100 | > 100 | > 100 | > 65.8 | > 100 | > 92.9 | 21.3 | > 100 | 69.7 | 91.6 | – | – | – | – | – | – | – | – |
| CSc1ccc(/C=C2\CN(C)C/C(=C\c3ccc(SC)cc3)C2=O)cc1 | > 100 | > 100 | 88.1 | 34.5 | – | > 100 | > 100 | > 100 | > 100 | 22.6 | – | – | – | – | – | – | – | – |
| N#CC(C#N)=c1ccc(=C2NCC3CCCN23)cc1 (centres undefined) | > 100 | > 100 | > 100 | – | > 100 | > 100 | > 100 | > 100 | > 100 | > 100 | – | – | – | – | – | – | – | – |
| O=[S@@]1Nc2ccc(Br)cc2S1 | > 100 | > 100 | > 100 | > 100 | 68.6 | > 100 | > 100 | > 100 | > 100 | > 100 | – | – | – | – | – | – | – | – |
| CC(=O)NC1=C(NCC(C)(C)C)C(=O)c2ccccc2C1=O | > 100 | > 100 | > 100 | > 100 | 49.7 | > 100 | > 100 | > 100 | > 100 | > 100 | – | – | – | – | – | – | – | – |
| CC1(C)OC(=O)C(=Cc2ccc(O)cc2)C(=O)O1 | > 100 | > 100 | > 100 | > 100 | > 100 | > 100 | > 100 | > 100 | > 100 | > 100 | – | – | – | – | – | – | – | – |
| COc1ccc(/C=C\c2cc(OC)c3c(c2)OCO3)c(O)c1O | 18.8 | 6.32 | > 77 | 22.3 | 3.53 | 14 | 17.7 | 16 | 14.3 | 16.6 | – | – | – | – | – | – | – | – |
| CCN(CC)CC(C(=O)Nc1c(C)cccc1C)/C(C)=N\NC(=O)C[N+](C)(C)C (centres undefined) | > 100 | > 100 | > 100 | > 100 | > 100 | > 100 | > 100 | > 100 | – | > 100 | – | – | – | – | – | – | – | – |
| CC(=O)N1[C@H](C(=O)O)CS[C@H]1c1ccncc1 | > 100 | > 100 | – | > 100 | – | > 100 | > 100 | > 100 | > 100 | > 100 | – | – | – | – | – | – | – | – |
| CCNC1C2(CCCCC2)NC(=O)C12CCCCC2 (centres undefined) | – | > 100 | > 100 | > 100 | – | > 100 | > 100 | > 100 | > 100 | – | – | – | – | – | – | – | – | – |
| O=C(O)CCSC(=O)Nc1cccc(F)c1 | > 100 | – | – | > 100 | – | – | – | > 100 | > 100 | > 100 | – | – | – | – | – | – | – | – |
| COc1ccc2c(c1)C1(C=N2)CCN(C(C)=O)CC1 | > 100 | > 100 | > 100 | > 100 | – | > 100 | > 100 | > 100 | > 100 | > 100 | – | – | – | – | – | – | – | – |
| CC1(C)COC(c2ccc(C(F)(F)F)cc2C(O)c2ccc3ccccc3c2)=N1 (centres undefined) | > 100 | > 100 | > 100 | > 100 | > 10 | > 100 | > 10 | > 100 | > 100 | > 100 | > 10 | > 100 | > 100 | > 10 | > 100 | > 10 | > 100 | > 100 |
| Cc1nc2c(nc1C)C(=O)c1ccccc1C2=O | 46.3 | 0.518 | 82.6 | 2.59 | 10.7 | 2.42 | 13 | > 94.2 | 46.9 | 7.11 | – | – | – | – | – | – | – | – |
